In ChEMBL document CHEMBL2203213, “Cytotoxic indole diketopiperazines from the deep sea-derived fungus Acrostalagmus luteoalbus SCSIO F457” (Bioorg Med Chem Lett, 2012):

Tests used:
Assay type in all cases: functional, cell-based
NCI-H460 = test: Cytotoxicity against human NCI-H460 cells by SRB method
HepG2 = test: Cytotoxicity against human HepG2 cells by SRB method
SF-268 = test: Cytotoxicity against human SF268 cells by SRB method
MCF7 = test: Cytotoxicity against human MCF7 cells by SRB method

| Structure (SMILES) | IC50 (NCI-H460) | IC50 (HepG2) | IC50 (SF-268) | IC50 (MCF7) |
| --- | --- | --- | --- | --- |
| C[C@@H]1NC(=O)[C@H](Cc2c[nH]c3ccccc23)NC1=O | > 100 µM | > 100 µM | > 100 µM | > 100 µM |
| O=C1N[C@@H](Cc2c[nH]c3ccccc23)C(=O)N[C@H]1CO | > 100 µM | > 100 µM | > 100 µM | > 100 µM |
| C[C@H]1C(=O)N[C@@H](Cc2c[nH]c3ccccc23)C(=O)N1C | > 100 µM | > 100 µM | > 100 µM | > 100 µM |
| CN1C(=O)[C@]23SSS[C@@]1(C)C(=O)N2[C@H]1Nc2ccccc2[C@]1(c1c[nH]c2ccccc12)[C@@H]3O | 17.8 µM | 2.03 µM | 2.49 µM | 0.65 µM |
| CN1C(=O)[C@]23SS[C@@]1(C)C(=O)N2[C@H]1Nc2ccccc2[C@]1(c1c[nH]c2ccccc12)[C@@H]3O | 6.57 µM | 0.53 µM | 0.73 µM | 0.23 µM |
| CN1C(=O)[C@]23SSS[C@]1(CO)C(=O)N2[C@H]1Nc2ccccc2[C@@]1(c1c[nH]c2ccccc12)[C@@H]3O | 5.6 µM | 3.52 µM | 1.04 µM | 0.91 µM |
| CS[C@]1(Cc2c[nH]c3ccccc23)NC(=O)[C@](CO)(SC)N(C)C1=O [CHETOSEMINUDIN B] | > 100 µM | > 100 µM | > 100 µM | > 100 µM |
| CS[C@]1(CO)NC(=O)[C@](Cc2c[nH]c3ccccc23)(SC)NC1=O [CHETOSEMINUDIN C] | > 100 µM | > 100 µM | > 100 µM | > 100 µM |
| CN1C(=O)[C@@]23C[C@@]4(c5c[nH]c6ccccc56)c5ccccc5N[C@@H]4N2C(=O)[C@]1(CO)SS3 [LUTEOALBUSIN A] | 1.15 µM | 0.91 µM | 0.46 µM | 0.23 µM |
| CN1C(=O)[C@@]23C[C@@]4(c5c[nH]c6ccccc56)c5ccccc5N[C@@H]4N2C(=O)[C@]1(CO)SSS3 [LUTEOALBUSIN B] | 1.31 µM | 1.29 µM | 0.59 µM | 0.25 µM |
